Laboratory results reported in patent US11452292B2, “Biofilm inhibitor and method of inhibiting biofilm” (NDSU Research Foundation, priority 2017, dated 2022).
≈ marks a conversion by molar mass, not a printed value. Entries after “also recorded” stand apart in the source; their conditions may differ. Where two headings read alike, the source gives them in different places.

Legend:
[1] = tested on: tested bacterial pathogens; assay: Biofilm in silicone tubing, EAA flush, ATP assay, summary over strains; format: cell-based
From the text: An AV Fistula Needle 17 Ga.

Y. enterocolitica [2] = assay: Planktonic growth (maximal velocity of OD600) in TSB; format: cell-based, Yersinia enterocolitica; conditions: for IC50: Yersinia enterocolitica, Y. enterocolitica
Description: The IC50 values were calculated using […] software (Hitachi Solutions, San Bruno, Calif.).

Enterobacteriaceae = assay: Ground beef at 10° C., counts on VRBG plates; format: cell-based; conditions: for Different from 0% (concentrations grouping differently from untreated control, Fisher's LSD and t-test): VRGB, Enterobacteriaceae
Description: Ground beef was obtained from the NDSU Meat Lab (ag.ndsu.edu/ansc/facilities/shepperd-arena). Precautionary steps that the slaughter facility undertakes to prevent microbial contamination of muscle meat include rinses of the hot carcass with hot water and 2.5% lactic acid (Birko Corp., Henderson, Colo.). Prior to cutting the meat, cattle halves are incubated for two weeks at a temperature between 0 and 2.2° C. For this Example, meat from two animals was ground within the NDSU Meat Lab and consecutively transferred on ice to the research lab where this Experiment was conducted. Approximately 4 pound of ground meat was obtained from two independent slaughter events (FIG. 6). These two original meat samples are referred to as biological replicates throughout this study. Each biological replicate was weighed into five aliquots of 200 g that were supplemented with 0 g, 0.1 g, 0.5 g, 1 g, or 5 g of liquid EAA (Alfa Aesar, Ward Hill Mass.). A total of six aliquots of 10 g were produced from each 200 g aliquot to allow for two technical replicates and determination of bacterial counts at three different time points during the incubation period. Aliquots were stored in Ziploc bags at −20° C.
Meat samples were removed from the freezer and incubated at 10° C. for five days; bacterial counts were determined on days 1, 3, and 5. For one initial experiment, samples were removed after 1 h of incubation at 10° C. This aliquot is not included in FIG. 6.
The content of each bag was transferred into a stomacher bag and Maximum Recovery Diluent (MRD) was added to a total of 50 ml. Meat was homogenized in a Seward Stomacher 400 Circulator (Cole Parmer, Vernon Hills, Ill.). The total bacterial count of each homogenate was determined by plating serial dilutions on Plate Count Agar (PCA). Pseudomonads were determined with Pseudomonas Selective Agar (PSA), lactobacilli with All Purpose Tween agar (APT), B. thermospacta with Streptomycin sulphate, Thallous Acetate and Actidione agar (STAA), and Enterobacteriaceae with Violet Red Bile Glucose agar (VRBG). For the composition of these media, see TABLE 7 (BD: Becton Dickinson). […]
Each experiment was performed in a total of 8 replicates (2 biological replicates×2 technical replicates×2 plate replicates). […] Data were analyzed for each EAA concentration and selective media and expressed as CFU/g of meat or log10 CFU/g of meat. […] Average and standard errors were calculated across the two biological and two technical replicates. […] For comparisons that determined statistically significant differences between the means (p-value below 0.05), Fisher's Least Significant Difference (LSD) test and a pairwise Student's t-test were performed as post hoc test to determine which of the groups were different from the others.

P. aeruginosa [3] = assay: Biofilm in silicone tubing, EAA flush, ATP assay
S. marcescens = assay: Biofilm in silicone tubing, EAA flush, ATP assay; conditions: 5 mg/ml EAA
B. subtilis = conditions: cited from earlier work
albino rabbits = conditions: 0.5 ml EAA, semi-occlusive cover, intact skin, 4 hours of exposure; cited from earlier work
P. aeruginosa [4] = assay: Biofilm in silicone tubing, EAA flush, CV assay; conditions: 100 mg/ml EAA
Y. enterocolitica [5] = assay: Biofilm in silicone tubing, EAA flush, ATP assay
Y. enterocolitica [6] = assay: Biofilm amounts, ATP assay, 24-well polystyrene plate; format: cell-based, Yersinia enterocolitica; conditions: for IC50: Yersinia enterocolitica, Y. enterocolitica
S. enterica [7] = conditions: cited from earlier work
S. aureus = assay: Viable cell counts in the liquid collected from the tubing before each treatment; format: cell-based, Staphylococcus aureus; conditions: before the 2nd treatment, 100 mg/ml EAA as first treatment
S. enterica [8] = format: cell-based, Salmonella enterica serovar Typhimurium
C. sakazakii = assay: Biofilm amounts, ATP assay, 24-well polystyrene plate; format: cell-based; conditions: Cronobacter sakazakii, 37° C.
E. coli CFT073 = assay: Biofilm in silicone tubing, EAA flush, CV assay
[9] = tested on: Cronobacter sakazakii, Serratia marcescens, and Yersinia enterocolitica; assay: Growth and biofilm assays, summary over the three pathogens

SMILES: CCOC(=O)CC(C)=O [EAA, ethyl acetoacetate]
- reductions of ATP, all strains except S. marcescens ([1]; 10 mg/ml EAA): ≥ 80%
- reduction of ATP content of the biofilm, almost all tested pathogens ([1]; 100 mg/ml of EAA flush): 100%
- reduction of ATP content depending on the strain ([1]; 10 and 100 mg/ml EAA): 90-99%
- log reduction of planktonic growth (Y. enterocolitica [2]; 25° C., 10 mg/ml EAA): 1.7 log
- reduction of planktonic growth, fold equivalent (Y. enterocolitica [2]; 25° C., 10 mg/ml EAA): 50 fold
- log reduction of planktonic growth (Y. enterocolitica [2]; 37° C., 5 mg/ml EAA): 1.78
- reduction of planktonic growth, fold equivalent (Y. enterocolitica [2]; 37° C., 5 mg/ml EAA): 61 fold
- IC50 (Y. enterocolitica [2]; 25° C.): 3200 µg/mL (≈ 24.6 mM)
- IC50 (Y. enterocolitica [2]; 37° C.): 2480 µg/mL (≈ 19.1 mM)
- log reduction, Enterobacteriaceae (Enterobacteriaceae; 0.5% w/w EAA, 3 days at 10° C.): 2
- log reductions, Enterobacteriaceae (Enterobacteriaceae; 2.5% of EAA, 5 days at 10° C.): up to 3.8
- Different from 0% (concentrations grouping differently from untreated control, Fisher's LSD and t-test) (Enterobacteriaceae; 0.5% EAA): 0.5%
- Different from 0% (concentrations grouping differently from untreated control, Fisher's LSD and t-test) (Enterobacteriaceae; 2.5% EAA): 2.5%
- ATP content of P. aeruginosa biofilm (P. aeruginosa [3]; 100 mg/ml EAA, first experiment): not affected; also recorded: not reduced
- reduction of ATP (P. aeruginosa [3]; P. aeruginosa, 10 mg/ml of EAA): 76%
- ATP assay of the biofilm at the end of the two week incubation (P. aeruginosa [3]; P. aeruginosa, 100 mg/ml of EAA, repeated experiment): just about abolished the biofilm
- reduction in ATP content of the biofilm (S. marcescens): ~100%
- mutagenicity (B. subtilis): No mutagenicity was detected
- skin irritation (albino rabbits): no indications of irritation were detected
- reduction in biofilm biomass (CV), words (P. aeruginosa [4]; first experiment): no reduction
- biofilm biomass from the CV assay after EAA (P. aeruginosa [4]; repeated experiment, untreated 0.78): 0.24 OD600
- reduction in ATP content in the biofilm (Y. enterocolitica [5]; 1 mg/ml EAA): 71%
- percent reduction of ATP (Y. enterocolitica [5]; 100 mg/ml EAA): 105%
- biofilm reduction by the ATP assay, fold equivalent (Y. enterocolitica [6]; 25° C., 15 mg/ml of EAA): 200 fold
- log ratio of biofilm reduction by the ATP assay (Y. enterocolitica [6]; 25° C., 15 mg/ml of EAA): 2.3 log
- biofilm amounts quantified by the ATP assay (Y. enterocolitica [6]; 37° C., 10 mg/ml EAA): abolished
- log reduction in biofilm amount, ATP assay (Y. enterocolitica [6]; 37° C., 10 mg/ml of EAA): 2.04
- reduction in biofilm amount, ATP assay, fold equivalent (Y. enterocolitica [6]; 37° C., 10 mg/ml of EAA): 110 fold
- IC50 (Y. enterocolitica [6]; 25° C.): 2100 µg/mL (≈ 16.1 mM)
- IC50 (Y. enterocolitica [6]; 37° C.): 4290 µg/mL (≈ 33 mM)
- mutagenicity (S. enterica [7]): No mutagenicity was detected
- difference in viable cells in the liquid, EAA vs media flush (S. aureus): 2 log
- reduction in the bacterial counts of S. enterica (S. enterica [8]; 0.5% EAA, 10° C.): not observed
- log reduction, Salmonella enterica serovar Typhimurium (S. enterica [8]; 0.5% w/w EAA, 3 days at 10° C.): 0.2
- IC50 (C. sakazakii): 310 µg/mL (≈ 2.38 mM)
- reduction in total biofilm biomass (CV), words (E. coli CFT073; E. coli CFT073, 5 mg/ml of EAA): almost no reduction
- reduction in biofilm biomass (CV), words (E. coli CFT073; E. coli CFT073, 10 mg/ml EAA): No reduction
- IC50 ([9]; read-out: IC50 values for biofilm amounts (summary)): ~1000 µg/mL (≈ 7.68 mM)
- IC50 ([9]; read-out: IC50 values, range over all experiments): 310 to 5600 µg/mL (≈ 2.38 to 43 mM)
- reduction of growth, biofilm amounts and live bacterial cell counts ([9]; three pathogens, maximal reduction): up to 3 logs
